# Measured values: US20100063127A1, “Antioxidant Properties of Tryptophan from Human Milk” (priority 2008, published 2010)
# Test system: TNFα
# Experiment: Effect on TNFα expression, cell based immunoassay in RAW 264.7 cells
# Set-up: species or system mouse
# Experimental: This was carried out using a cell based immunoassay using mouse monocyte/macrophage cells (RAW 264.7; ATCC American Tissue Culture Collection). The experiment was done in triplicates. The data were analyzed by t-test. […] Based on this tryptophan is an ant-inflammatory amino acid.
smiles,measurement,setting,value
N[C@@H](Cc1c[nH]c2ccccc12)C(=O)O [Tryptophan],TNFα,"Tryptophan 50 μg/ml, control Medium + LPS 1 μg/ml 6156, triplicates",4869 pg/mL
same,"TNFα, treated value versus control value (t-test)",p<0.05,significant difference
